Laboratory results reported in patent US11572590B2, “Methods for evaluating tumor cell spheroids using 3D microfluidic cell culture device” (Dana-Farber Cancer Institute, Inc., priority 2017, dated 2023).
Where two headings read alike, the source gives them in different places.

Columns and labels:
Assay in all cases: SelectScreen Kinase Profiling, single point inhibition and IC50 for off-target kinases
Assay type in all cases: biochemical
[1] = target: off-target kinases (Homo sapiens, UniProt P68400); conditions: CSNK2A1 (CK2 alpha 1), ZLYTE, ATP Km app
[2] = target: T1, off-target kinases (Homo sapiens, UniProt P42680); conditions: TEC, LanthaScreen Binding
T1 sequence (P42680 1-631): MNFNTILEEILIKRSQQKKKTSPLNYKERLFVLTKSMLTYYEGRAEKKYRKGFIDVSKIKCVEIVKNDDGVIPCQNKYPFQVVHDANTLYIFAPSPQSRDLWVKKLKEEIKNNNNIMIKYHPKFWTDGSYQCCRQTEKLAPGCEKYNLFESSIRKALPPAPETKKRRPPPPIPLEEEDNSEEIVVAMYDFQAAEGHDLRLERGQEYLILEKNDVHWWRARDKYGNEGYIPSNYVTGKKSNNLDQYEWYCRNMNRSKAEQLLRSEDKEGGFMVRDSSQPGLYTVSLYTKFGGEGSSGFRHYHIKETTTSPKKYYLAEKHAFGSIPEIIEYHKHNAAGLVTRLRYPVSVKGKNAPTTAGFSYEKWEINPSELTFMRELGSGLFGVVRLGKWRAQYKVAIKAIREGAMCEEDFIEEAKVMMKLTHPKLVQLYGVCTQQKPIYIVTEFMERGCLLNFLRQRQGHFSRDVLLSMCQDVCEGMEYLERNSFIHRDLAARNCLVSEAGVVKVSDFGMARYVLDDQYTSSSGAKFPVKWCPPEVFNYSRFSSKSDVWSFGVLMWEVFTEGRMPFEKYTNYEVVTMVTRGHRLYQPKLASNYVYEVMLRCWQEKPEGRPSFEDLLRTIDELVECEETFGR

[3] = target: off-target kinases (Homo sapiens, UniProt P00519, H396P); conditions: ABL1 H396P, LanthaScreen Binding
[4] = target: off-target kinases (Homo sapiens, UniProt Q96GD4); conditions: AURKB (Aurora B), ATP Km app, ZLYTE
[5] = target: off-target kinases (Homo sapiens, UniProt P53671); conditions: LIMK2, LanthaScreen Binding
off-target kinases (Homo sapiens, UniProt P53671), sequence (P53671 whole entry): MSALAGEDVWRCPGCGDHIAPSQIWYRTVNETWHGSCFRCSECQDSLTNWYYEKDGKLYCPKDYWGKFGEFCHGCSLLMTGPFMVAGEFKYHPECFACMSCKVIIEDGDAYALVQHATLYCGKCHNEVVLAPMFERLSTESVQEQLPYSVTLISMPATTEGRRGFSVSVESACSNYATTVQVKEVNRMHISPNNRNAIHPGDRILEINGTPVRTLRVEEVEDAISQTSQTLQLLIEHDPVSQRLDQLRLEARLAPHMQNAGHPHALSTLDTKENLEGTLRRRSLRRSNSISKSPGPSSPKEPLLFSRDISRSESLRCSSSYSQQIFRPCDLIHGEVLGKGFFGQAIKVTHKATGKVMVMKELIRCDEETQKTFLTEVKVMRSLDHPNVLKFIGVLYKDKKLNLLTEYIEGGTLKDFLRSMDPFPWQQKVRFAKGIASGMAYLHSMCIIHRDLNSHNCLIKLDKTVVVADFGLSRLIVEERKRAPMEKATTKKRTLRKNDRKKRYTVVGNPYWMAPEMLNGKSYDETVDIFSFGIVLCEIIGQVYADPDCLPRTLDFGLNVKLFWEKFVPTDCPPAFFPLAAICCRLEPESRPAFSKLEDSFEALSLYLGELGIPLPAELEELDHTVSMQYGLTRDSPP

off-target kinases (Homo sapiens, UniProt P68400), sequence (P68400 whole entry): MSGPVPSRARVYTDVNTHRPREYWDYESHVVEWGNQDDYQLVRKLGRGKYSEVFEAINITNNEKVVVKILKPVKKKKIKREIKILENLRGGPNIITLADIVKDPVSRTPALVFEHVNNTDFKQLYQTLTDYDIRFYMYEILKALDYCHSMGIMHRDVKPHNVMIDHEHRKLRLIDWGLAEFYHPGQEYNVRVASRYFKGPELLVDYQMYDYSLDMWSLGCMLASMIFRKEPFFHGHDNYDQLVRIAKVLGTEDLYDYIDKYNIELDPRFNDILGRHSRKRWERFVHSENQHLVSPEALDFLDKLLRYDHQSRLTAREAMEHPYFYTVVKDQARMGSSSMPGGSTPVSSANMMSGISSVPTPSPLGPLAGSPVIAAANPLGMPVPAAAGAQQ
off-target kinases (Homo sapiens, UniProt Q96GD4), sequence (Q96GD4 whole entry): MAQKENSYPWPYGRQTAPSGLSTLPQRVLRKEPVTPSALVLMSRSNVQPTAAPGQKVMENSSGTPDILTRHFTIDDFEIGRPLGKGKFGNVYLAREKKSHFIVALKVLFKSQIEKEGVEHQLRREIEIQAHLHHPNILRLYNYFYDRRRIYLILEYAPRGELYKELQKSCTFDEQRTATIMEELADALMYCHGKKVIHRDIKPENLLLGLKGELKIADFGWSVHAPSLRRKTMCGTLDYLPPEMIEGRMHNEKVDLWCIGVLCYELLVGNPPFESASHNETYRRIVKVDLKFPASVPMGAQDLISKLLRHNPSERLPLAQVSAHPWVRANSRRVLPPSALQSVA

Work on `N#Cc1cc(-c2ncnc(Nc3ccc(N4CCN(C5COC5)CC4)cc3)n2)ccc1OC1CCOCC1` [Compound 1, 5-(4-((4-(4-(oxetan-3-yl)piperazin-1-yl)phenyl)amino)-1,3,5-triazin-2-yl)-2-((tetrahydro-2H-pyran-4-yl)oxy)benzonitrile] yielded an inhibition ([1]; read-out: % Inhibition 1) of 13%, an inhibition ([1]; read-out: % Inhibition 2) of 7% and an inhibition ([1]; read-out: % Inhibition Avg) of 10%. For the same compound, the inhibition ([2]; read-out: % Inhibition 1) was 0%, the inhibition ([2]; read-out: % Inhibition 2) was 2% and the inhibition ([2]; read-out: % Inhibition Avg) was 1%. The inhibition ([3]; read-out: % Inhibition 1) was 58%, the inhibition ([3]; read-out: % Inhibition 2) was 60% and the inhibition ([3]; read-out: % Inhibition Avg) was 59%. For the same compound, the inhibition ([4]; read-out: % Inhibition 1) was 54%, the inhibition ([4]; read-out: % Inhibition 2) was 48% and the inhibition ([4]; read-out: % Inhibition Avg) was 51%. The inhibition ([5]; read-out: % Inhibition 1) was 14%, the inhibition ([5]; read-out: % Inhibition 2) was 19% and the inhibition ([5]; read-out: % Inhibition Avg) was 17%.
